Measured values as given in PubChem BioAssay (NCI).
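Values below derive from 48-hour exposures of cells grown in 96-well plates, with endpoints linearly interpolated between the two concentrations bracketing the appropriate inhibition level. The concentration for 50% growth inhibition is given as GI50. TGI: concentration producing complete growth inhibition.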

Tests used:
Test in all cases: inhibition of tumour cell growth, NCI panel, 48 h
CAKI-1 renal = system: CAKI-1 renal
NCI/ADR-RES ovarian = system: NCI/ADR-RES ovarian
OVCAR-8 ovarian = system: OVCAR-8 ovarian
UACC-62 melanoma = system: UACC-62 melanoma
SK-OV-3 ovarian = system: SK-OV-3 ovarian
RXF 393 renal = system: RXF 393 renal
HOP-92 NSCLC = system: HOP-92 NSCLC
SF-539 CNS = system: SF-539 CNS
OVCAR-3 ovarian = system: OVCAR-3 ovarian
DU-145 prostate = system: DU-145 prostate
RPMI-8226 leukemia = system: RPMI-8226 leukemia
SW-620 colon = system: SW-620 colon
HS 578T breast = system: HS 578T breast
KM12 colon = system: KM12 colon
PC-3 prostate = system: PC-3 prostate
SNB-75 CNS = system: SNB-75 CNS
CCRF-CEM leukemia = system: CCRF-CEM leukemia
NCI-H23 lung = system: NCI-H23 lung
SF-268 CNS = system: SF-268 CNS
HL-60(TB) leukemia = system: HL-60(TB) leukemia
A498 renal = system: A498 renal
ACHN renal = system: ACHN renal
SK-MEL-28 melanoma = system: SK-MEL-28 melanoma
K-562 leukemia = system: K-562 leukemia
NCI-H522 lung = system: NCI-H522 lung
UO-31 renal = system: UO-31 renal
TK-10 renal = system: TK-10 renal
UACC-257 melanoma = system: UACC-257 melanoma
HCT-116 colon = system: HCT-116 colon
SN12C renal = system: SN12C renal
HCC-2998 colon = system: HCC-2998 colon
MDA-MB-231 breast = system: MDA-MB-231 breast
SK-MEL-5 melanoma = system: SK-MEL-5 melanoma
SR leukemia = system: SR leukemia
EKVX NSCLC = system: EKVX NSCLC
786-0 renal = system: 786-0 renal
MOLT-4 leukemia = system: MOLT-4 leukemia
IGROV1 ovarian = system: IGROV1 ovarian
HT29 colon = system: HT29 colon
LOX IMVI melanoma = system: LOX IMVI melanoma
COLO 205 colon = system: COLO 205 colon
MALME-3M melanoma = system: MALME-3M melanoma
SNB-19 CNS = system: SNB-19 CNS
MCF7 breast = system: MCF7 breast
SK-MEL-2 melanoma = system: SK-MEL-2 melanoma
OVCAR-5 ovarian = system: OVCAR-5 ovarian
U251 CNS = system: U251 CNS
MDA-MB-435 = system: MDA-MB-435
NCI-H226 lung = system: NCI-H226 lung
BT-549 breast = system: BT-549 breast
NCI-H460 lung = system: NCI-H460 lung
HOP-62 NSCLC = system: HOP-62 NSCLC
HCT-15 colon = system: HCT-15 colon
M14 melanoma = system: M14 melanoma
A549 NSCLC = system: A549 NSCLC
SF-295 CNS = system: SF-295 CNS
OVCAR-4 ovarian = system: OVCAR-4 ovarian

Compound `NC(N)=Nc1ccc(Oc2cccc(Nc3ccc(Cl)cc3)c2)cn1` has a GI50 (CAKI-1 renal) of 1640 nM, a TGI (CAKI-1 renal) of 3.17 µM and a GI50 (NCI/ADR-RES ovarian) of 4.05 µM. For the same compound, the TGI (NCI/ADR-RES ovarian) was 20.5 µM, the GI50 (OVCAR-8 ovarian) was 1970 nM and the TGI (OVCAR-8 ovarian) was 4.46 µM. It also gave a GI50 (UACC-62 melanoma) of 1740 nM, a TGI (UACC-62 melanoma) of 3.28 µM and a GI50 (SK-OV-3 ovarian) of 2110 nM. For the same compound, the TGI (SK-OV-3 ovarian) was 4.16 µM, the GI50 (RXF 393 renal) was 1780 nM and the TGI (RXF 393 renal) was 3370 nM. The GI50 (HOP-92 NSCLC) was 1070 nM, the TGI (HOP-92 NSCLC) was 2390 nM and the GI50 (SF-539 CNS) was 1650 nM. The TGI (SF-539 CNS) was 3.13 µM, the GI50 (OVCAR-3 ovarian) was 1800 nM and the TGI (OVCAR-3 ovarian) was 3.63 µM. It also gave a GI50 (DU-145 prostate) of 1760 nM, a TGI (DU-145 prostate) of 3.27 µM and a GI50 (RPMI-8226 leukemia) of 2020 nM. For the same compound, the TGI (RPMI-8226 leukemia) was 5.08 µM, the GI50 (SW-620 colon) was 1830 nM and the TGI (SW-620 colon) was 3.55 µM. For the same compound, the GI50 (HS 578T breast) was 1990 nM, the TGI (HS 578T breast) was 4.52 µM and the GI50 (KM12 colon) was 2080 nM. The TGI (KM12 colon) was 4.58 µM, the GI50 (PC-3 prostate) was 1460 nM and the TGI (PC-3 prostate) was 2.84 µM. The GI50 (SNB-75 CNS) was 1270 nM, the TGI (SNB-75 CNS) was 2570 nM and the GI50 (CCRF-CEM leukemia) was 2040 nM. The TGI (CCRF-CEM leukemia) was 5.27 µM, the GI50 (NCI-H23 lung) was 1660 nM and the TGI (NCI-H23 lung) was 3.24 µM. For the same compound, the GI50 (SF-268 CNS) was 1720 nM, the TGI (SF-268 CNS) was 3.75 µM and the GI50 (HL-60(TB) leukemia) was 2520 nM. It also gave a TGI (HL-60(TB) leukemia) of 4.75 µM, a GI50 (A498 renal) of 1170 nM and a TGI (A498 renal) of 2.66 µM. For the same compound, the GI50 (ACHN renal) was 1730 nM, the TGI (ACHN renal) was 3.13 µM and the GI50 (SK-MEL-28 melanoma) was 1670 nM. The TGI (SK-MEL-28 melanoma) was 3.12 µM, the GI50 (K-562 leukemia) was 2660 nM and the TGI (K-562 leukemia) was 8.21 µM. For the same compound, the GI50 (NCI-H522 lung) was 1530 nM, the TGI (NCI-H522 lung) was 3.13 µM and the GI50 (UO-31 renal) was 1710 nM. For the same compound, the TGI (UO-31 renal) was 3.28 µM, the GI50 (TK-10 renal) was 1690 nM and the TGI (TK-10 renal) was 3.3 µM.
In the case of `CC1OC(O[C@@H]2C(O)C(CO)OC(O[C@H]3COC(O[C@H]4CC[C@]5(C)[C@H]6CC[C@]78OC[C@@]9(CC[C@](C)(C=O)C[C@H]97)[C@H](O)C[C@@]8(C)[C@]6(C)CC[C@H]5C4(C)C)[C@@H](OC4OC(CO)[C@@H](O)[C@@H](O)[C@@H]4O)[C@@H]3O)[C@H]2OC2OC[C@@H](O)[C@@H](O)[C@@H]2O)[C@@H](O)[C@@H](O)[C@H]1O` (stereo partly specified), the GI50 (UACC-257 melanoma) is reported as 2030 nM, the TGI (UACC-257 melanoma) is reported as 3.77 µM and the GI50 (CAKI-1 renal) is reported as 1890 nM. For the same compound, the TGI (CAKI-1 renal) was 3.48 µM, the GI50 (NCI/ADR-RES ovarian) was 1.97 µM and the TGI (NCI/ADR-RES ovarian) was 4.15 µM. It also gave a GI50 (HCT-116 colon) of 1480 nM, a TGI (HCT-116 colon) of 2980 nM and a GI50 (OVCAR-8 ovarian) of 2100 nM. For the same compound, the TGI (OVCAR-8 ovarian) was 4.28 µM, the GI50 (UACC-62 melanoma) was 1970 nM and the TGI (UACC-62 melanoma) was 3.82 µM. The GI50 (SK-OV-3 ovarian) was 1920 nM, the TGI (SK-OV-3 ovarian) was 3.49 µM and the GI50 (SN12C renal) was 1700 nM. For the same compound, the TGI (SN12C renal) was 3.51 µM, the GI50 (HCC-2998 colon) was 1950 nM and the TGI (HCC-2998 colon) was 3.52 µM. For the same compound, the GI50 (MDA-MB-231 breast) was 1760 nM, the TGI (MDA-MB-231 breast) was 3.51 µM and the GI50 (SK-MEL-5 melanoma) was 2380 nM. For the same compound, the TGI (SK-MEL-5 melanoma) was 5.81 µM, the GI50 (SR leukemia) was 357 nM and the TGI (SR leukemia) was 1240 nM. It also gave a GI50 (RXF 393 renal) of 811 nM, a TGI (RXF 393 renal) of 2400 nM and a GI50 (HOP-92 NSCLC) of 982 nM. The TGI (HOP-92 NSCLC) was 2620 nM, the GI50 (EKVX NSCLC) was 1930 nM and the TGI (EKVX NSCLC) was 3.84 µM. It also gave a GI50 (SF-539 CNS) of 1610 nM, a TGI (SF-539 CNS) of 3.1 µM and a GI50 (786-0 renal) of 2140 nM. It also gave a TGI (786-0 renal) of 3.97 µM, a GI50 (OVCAR-3 ovarian) of 1980 nM and a TGI (OVCAR-3 ovarian) of 3.82 µM. It also gave a GI50 (MOLT-4 leukemia) of 1130 nM, a TGI (MOLT-4 leukemia) of 3.98 µM and a GI50 (DU-145 prostate) of 1950 nM. For the same compound, the TGI (DU-145 prostate) was 3.71 µM, the GI50 (IGROV1 ovarian) was 1820 nM and the TGI (IGROV1 ovarian) was 3.93 µM. It also gave a GI50 (HT29 colon) of 1990 nM, a TGI (HT29 colon) of 4.02 µM and a GI50 (LOX IMVI melanoma) of 1740 nM. It also gave a TGI (LOX IMVI melanoma) of 3.39 µM, a GI50 (COLO 205 colon) of 1620 nM and a TGI (COLO 205 colon) of 3.16 µM. The GI50 (MALME-3M melanoma) was 1740 nM, the TGI (MALME-3M melanoma) was 3.51 µM and the GI50 (RPMI-8226 leukemia) was 1730 nM. For the same compound, the TGI (RPMI-8226 leukemia) was 4.28 µM, the GI50 (SNB-19 CNS) was 1810 nM and the TGI (SNB-19 CNS) was 3.71 µM. The GI50 (SW-620 colon) was 1840 nM, the TGI (SW-620 colon) was 3.7 µM and the GI50 (MCF7 breast) was 1980 nM. For the same compound, the TGI (MCF7 breast) was 4.11 µM, the GI50 (HS 578T breast) was 1920 nM and the TGI (HS 578T breast) was 4.14 µM. For the same compound, the GI50 (SK-MEL-2 melanoma) was 2330 nM, the TGI (SK-MEL-2 melanoma) was 4.24 µM and the GI50 (OVCAR-5 ovarian) was 1860 nM. For the same compound, the TGI (OVCAR-5 ovarian) was 3.42 µM, the GI50 (U251 CNS) was 2120 nM and the TGI (U251 CNS) was 3.87 µM. The GI50 (MDA-MB-435) was 1850 nM, the TGI (MDA-MB-435) was 3.57 µM and the GI50 (PC-3 prostate) was 1950 nM. For the same compound, the TGI (PC-3 prostate) was 3.64 µM, the GI50 (SNB-75 CNS) was 1700 nM and the TGI (SNB-75 CNS) was 3250 nM. For the same compound, the GI50 (CCRF-CEM leukemia) was 1210 nM, the TGI (CCRF-CEM leukemia) was 4.34 µM and the GI50 (NCI-H226 lung) was 1890 nM. It also gave a TGI (NCI-H226 lung) of 3.98 µM, a GI50 (NCI-H23 lung) of 1890 nM and a TGI (NCI-H23 lung) of 3.74 µM. The GI50 (SF-268 CNS) was 1910 nM, the TGI (SF-268 CNS) was 3.91 µM and the GI50 (BT-549 breast) was 1770 nM. It also gave a TGI (BT-549 breast) of 3.5 µM, a GI50 (HL-60(TB) leukemia) of 598 nM and a TGI (HL-60(TB) leukemia) of 2.19 µM. The GI50 (A498 renal) was 2260 nM, the TGI (A498 renal) was 3.98 µM and the GI50 (ACHN renal) was 1500 nM. It also gave a TGI (ACHN renal) of 2.92 µM, a GI50 (NCI-H460 lung) of 1880 nM and a TGI (NCI-H460 lung) of 3.83 µM. For the same compound, the GI50 (SK-MEL-28 melanoma) was 1690 nM, the TGI (SK-MEL-28 melanoma) was 3.29 µM and the GI50 (K-562 leukemia) was 2200 nM. It also gave a TGI (K-562 leukemia) of 5.68 µM, a GI50 (NCI-H522 lung) of 1970 nM and a TGI (NCI-H522 lung) of 3.75 µM. It also gave a GI50 (HOP-62 NSCLC) of 1760 nM, a TGI (HOP-62 NSCLC) of 3.47 µM and a GI50 (HCT-15 colon) of 2230 nM. For the same compound, the TGI (HCT-15 colon) was 5.01 µM, the GI50 (M14 melanoma) was 1710 nM and the TGI (M14 melanoma) was 3.4 µM. It also gave a GI50 (A549 NSCLC) of 2110 nM, a TGI (A549 NSCLC) of 4.04 µM and a GI50 (UO-31 renal) of 1350 nM. For the same compound, the TGI (UO-31 renal) was 2.82 µM, the GI50 (SF-295 CNS) was 1760 nM and the TGI (SF-295 CNS) was 3.31 µM. For the same compound, the GI50 (OVCAR-4 ovarian) was 1840 nM, the TGI (OVCAR-4 ovarian) was 3.93 µM and the GI50 (TK-10 renal) was 2790 nM. It also gave a TGI (TK-10 renal) of 4.51 µM.
